Assay results from patent US9994547B2, “Heteroarylamide inhibitors of TBK1” (Takeda Pharmaceutical Company Limited, priority 2014, dated 2018).

target: Full length human TBK1 (Homo sapiens (Human), UniProt Q9UHD2); assay: Inhibition of TBK1 Enzyme (Example A); format: biochemical; conditions: -log(IC50), IC50 molar; 3 nM TBK1, 25 μM ATP, 60 min RT
Summary of the method: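 Full-length N-His human TBK1 from Sf9 baculovirus was tested with 11-point 2.5-fold dilutions (1% DMSO) in Hepes pH 7.4, MgCl2, EDTA, Brij, DTT. After 60 min RT and EDTA quench, microfluidic conversion was fitted and reported as pIC50.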

Chain of Full length human TBK1 (Q9UHD2 whole entry): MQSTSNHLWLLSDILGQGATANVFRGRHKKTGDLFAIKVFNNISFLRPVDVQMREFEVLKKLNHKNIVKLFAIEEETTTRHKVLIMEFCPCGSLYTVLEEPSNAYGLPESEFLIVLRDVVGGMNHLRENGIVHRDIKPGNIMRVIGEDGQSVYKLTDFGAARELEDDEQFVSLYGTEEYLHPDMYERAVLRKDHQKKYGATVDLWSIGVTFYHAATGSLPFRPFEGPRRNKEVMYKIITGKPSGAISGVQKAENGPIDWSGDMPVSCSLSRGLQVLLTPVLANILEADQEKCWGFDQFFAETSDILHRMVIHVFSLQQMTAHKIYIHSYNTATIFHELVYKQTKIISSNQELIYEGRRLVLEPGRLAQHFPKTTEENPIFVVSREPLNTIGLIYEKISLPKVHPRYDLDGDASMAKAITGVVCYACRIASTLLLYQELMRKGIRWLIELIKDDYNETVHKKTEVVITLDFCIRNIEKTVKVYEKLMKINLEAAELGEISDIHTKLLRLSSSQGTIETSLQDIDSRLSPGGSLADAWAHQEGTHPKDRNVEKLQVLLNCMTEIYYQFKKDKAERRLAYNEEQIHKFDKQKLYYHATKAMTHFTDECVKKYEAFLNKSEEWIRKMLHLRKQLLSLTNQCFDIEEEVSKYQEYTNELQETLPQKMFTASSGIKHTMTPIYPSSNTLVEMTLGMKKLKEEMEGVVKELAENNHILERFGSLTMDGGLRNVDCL

SMILES	TBK1 Inhibition (pIC50)
C[C@H](Nc1cc(-c2cnc(NC(=O)C3CC3)cn2)ccc1C#N)C(=O)N(C)C [Example 1, (S)-N-(5-(4-cyano-3-((1-(dimethylamino)-1-oxopropan-2-yl)amino)phenyl)pyrazin-2-yl)cyclopropanecarboxamide]	8.1
C[C@H](Nc1cc(-c2cnc(NC(=O)C3CC3)cn2)cnc1C#N)C(=O)N(C)C [Example 129, (S)-N-(5-(6-cyano-5-((1-(dimethylamino)-1-oxopropan-2-yl)amino)pyridin-3-yl)pyrazin-2-yl)cyclopropanecarboxamide]	7.6
COCC[C@H](Nc1cc(-c2cnc(NC(=O)C3CC3)cn2)cnc1C#N)C(=O)N(C)C [Example 131, (S)-N-(5-(6-cyano-5-((1-(dimethylamino)-4-methoxy-1-oxobutan-2-yl)amino)pyridin-3-yl)pyrazin-2-yl)cyclopropanecarboxamide]	7.1
CC1(O)CCN(C(=O)CNc2cc(-c3cnc(NC(=O)C4CC4)cn3)ccc2C#N)C1 (stereo not drawn) [Example 132, N-(5-(4-cyano-3-((2-(3-hydroxy-3-methylpyrrolidin-1-yl)-2-oxoethyl)amino)phenyl)pyrazin-2-yl)cyclopropanecarboxamide]	6.2
CC(CO)N(C)C(=O)CNc1cc(-c2cnc(NC(=O)C3CC3)cn2)ccc1C#N (stereo not drawn) [Example 133, N-(5-(4-cyano-3-((2-((1-hydroxypropan-2-yl)(methyl)amino)-2-oxoethyl)amino)phenyl)pyrazin-2-yl)cyclopropanecarboxamide]	7.3
CC(O)CN(C)C(=O)CNc1cc(-c2cnc(NC(=O)C3CC3)cn2)ccc1C#N (stereo not drawn) [Example 134, N-(5-(4-cyano-3-((2-((2-hydroxypropyl)(methyl)amino)-2-oxoethyl)amino)phenyl)pyrazin-2-yl)cyclopropanecarboxamide]	6.9
CN(C)C(=O)[C@H](CO)Nc1cc(-c2cnc(NC(=O)C3CC3)cn2)ccc1C#N [Example 136, (S)-N-(5-(4-cyano-3-((1-(dimethylamino)-3-hydroxy-1-oxopropan-2-yl)amino)phenyl)pyrazin-2-yl)cyclopropanecarboxamide]	7.6
C[C@H](Nc1cc(-c2cnc(NC(=O)C3CC3)cn2)cc(F)c1C#N)C(=O)N(C)C [Example 137, (S)-N-(5-(4-cyano-3-((1-(dimethylamino)-1-oxopropan-2-yl)amino)-5-fluorophenyl)pyrazin-2-yl)cyclopropanecarboxamide]	7.6
CN(C)C(=O)C(CC(F)(F)F)Nc1cc(-c2cnc(NC(=O)C3CC3)cn2)cnc1C#N (stereo not drawn) [Example 138, N-(5-(6-cyano-5-((1-(dimethylamino)-4,4,4-trifluoro-1-oxobutan-2-yl)amino)pyridin-3-yl)pyrazin-2-yl)cyclopropanecarboxamide]	6.2
C[C@H](Nc1cc(-c2cnc(NC(=O)C3CC3)cn2)cnc1C#N)C(=O)N1CC[C@H](F)C1 [Example 139, N-(5-(6-cyano-5-(((S)-1-((S)-3-fluoropyrrolidin-1-yl)-1-oxopropan-2-yl)amino)pyridin-3-yl)pyrazin-2-yl)cyclopropanecarboxamide]	7.7
N#Cc1ncc(-c2cnc(NC(=O)C3CC3)cn2)cc1NCC(=O)N1CCS(=O)(=O)C1 [Example 140, N-(5-(6-cyano-5-((2-(1,1-dioxidothiazolidin-3-yl)-2-oxoethyl)amino)pyridin-3-yl)pyrazin-2-yl)cyclopropanecarboxamide]	7.0
N#Cc1ncc(-c2cnc(NC(=O)C3CC3)cn2)cc1NCC(=O)N1CCC[C@@H]1C(F)F [Example 141, (R)-N-(5-(6-cyano-5-((2-(2-(difluoromethyl)pyrrolidin-1-yl)-2-oxoethyl)amino)pyridin-3-yl)pyrazin-2-yl)cyclopropanecarboxamide]	8.3
N#Cc1ncc(-c2cnc(NC(=O)C3CC3)cn2)cc1NCC(=O)N1CCCC1CF (stereo not drawn) [Example 143, N-(5-(6-cyano-5-((2-(2-(fluoromethyl)pyrrolidin-1-yl)-2-oxoethyl)amino)pyridin-3-yl)pyrazin-2-yl)cyclopropanecarboxamide]	7.0
CC1CC1C(=O)Nc1cnc(-c2cnc(C#N)c(NCC(N)=O)c2)cn1 (stereo not drawn) [Example 144, N-(5-(5-((2-amino-2-oxoethyl)amino)-6-cyanopyridin-3-yl)pyrazin-2-yl)-2-methylcyclopropanecarboxamide]	5.6
CC1CC1C(=O)Nc1cnc(-c2cnc(C#N)c(NCC(=O)N(C)C)c2)cn1 (stereo not drawn) [Example 145, N-(5-(6-cyano-5-((2-(dimethylamino)-2-oxoethyl)amino)pyridin-3-yl)pyrazin-2-yl)-2-methylcyclopropanecarboxamide]	7.1
C[C@H](Nc1cc(-c2cnc(NC(=O)C3CC3CO)cn2)cnc1C#N)C(=O)N(C)CC(F)F (stereo partly drawn) [Example 146, N-(5-(6-cyano-5-(((S)-1-((2,2-difluoroethyl)(methyl)amino)-1-oxopropan-2-yl)amino)pyridin-3-yl)pyrazin-2-yl)-2-(hydroxymethyl)cyclopropanecarboxamide]	8.1

same assay, conditions: -log(IC50), IC50 molar; 3 nM TBK1, 25 μM ATP, 60 min RT; read-out: TBK1 Inhibition (pIC50) (converted)

SMILES	IC50 [nM]
CC[C@H](Nc1cc(-c2cnc(NC(=O)C3CC(C)(O)C3)cn2)cnc1C#N)C(=O)N(C)C (stereo partly drawn) [Example 147, (S)-N-(5-(6-cyano-5-((1-(dimethylamino)-1-oxobutan-2-yl)amino)pyridin-3-yl)pyrazin-2-yl)-3-hydroxy-3-methylcyclobutanecarboxamide]	398

system: C57/BL6 mice; assay: Inhibition of ConA Induced Hepatitis (Example B); format: in vivo; conditions: Mus musculus; oral, 1 hr before ConA 15 mg/kg i.v.; plasma ALT post 8-24 hrs; read-out: ED50 (amount of test compound that reduces ConA induced increase in plasma ALT level by 50%)
Description: Orally administer compound into normal C57/BL6 mice at several doses. After 1 hr, inject i.v. with ConA 15 mg/kg, (N=5). Post 8-24 hrs, collect plasma and liver. Measure plasma ALT enzyme level. An ED50 is determined as the amount of test compound that reduces ConA induced increase in plasma ALT level by 50%.

SMILES	ED50 [mg/kg]
C[C@H](Nc1cc(-c2cnc(NC(=O)C3CC3)cn2)ccc1C#N)C(=O)N(C)C [Example 1, (S)-N-(5-(4-cyano-3-((1-(dimethylamino)-1-oxopropan-2-yl)amino)phenyl)pyrazin-2-yl)cyclopropanecarboxamide]	5
